The values that follow are results of earlier work, collected in patent US20050171374A1, “Preparation of levulinic acid esters from alpha-angelica lactone and olefins; use of ester compositions as fuel additives” (priority 2004, published 2005).

Where a name gives a salt, the structure may show the parent alone.

For one data set the following is noted: reference [1] DIPPR.
Consider `CCCCCOC=O` [Amyl Formate Ester], for which the “Flash Point [1]” value is 26.85 °C.
In the case of `CCO` [Ethanol, reference compound], the “Flash Point [1]” value is 12.85 °C.
In the case of `CCOC=O` [Ethyl Formate], the “Flash Point [1]” value was −20 °C.
For `CC(C)COC=O` [Isobutyl Formate], the “Flash Point [1]” value was 3.85 °C.
Consider `CC(C)OC=O` [Isopropyl Formate], for which the “Flash Point [1]” value was −6 °C.
`COC(C)(C)C` [MTBE, methyl tertiary-butyl ether, reference compound]: the “Flash Point [1]” value was −28.15 °C.
With `CO` [Methanol, reference compound], the “Flash Point [1]” value is 10.85 °C.
Turning to `COC=O` [Methyl Formate], the “Flash Point [1]” value was −19.15 °C.
As to `CCCCOC=O` [N-Butyl Formate], the “Flash Point [1]” value was 18 °C.
With `CCCOC=O` [N-Propyl Formate], the “Flash Point [1]” value is −3.15 °C.
With `CCC(C)OC=O` (stereo not shown) [Sec-Butyl Formate], the “Flash Point [1]” value is 0.85 °C.
With `CC(C)(C)OC=O` [Tert-Butyl Formate], the “Flash Point [1]” value is −9 °C.

For a further data set the following is noted: reference [1] DIPPR. The source holds these as a separate data set.
As to `CCCCCOC=O` [Amyl Formate Ester], the “Vapor Press. (100° F.) [1]” value is 2.5 KPa.
On to `CCO` [Ethanol, reference compound], for which the “Vapor Press. (100° F.) [1]” value was 16 KPa.
Turning to `CCOC=O` [Ethyl Formate], the “Vapor Press. (100° F.) [1]” value is 55 KPa.
In the case of `CC(C)COC=O` [Isobutyl Formate], the “Vapor Press. (100° F.) [1]” value is recorded as 10.2 KPa.
In the case of `COC(C)(C)C` [MTBE, methyl tertiary-butyl ether, reference compound], the “Vapor Press. (100° F.) [1]” value is on record as 55 KPa.
With `CO` [Methanol, reference compound], the “Vapor Press. (100° F.) [1]” value is on record as 32 KPa.
For the compound `COC=O` [Methyl Formate], the “Vapor Press. (100° F.) [1]” value is listed as 126.2 KPa.
As for `CCCCOC=O` [N-Butyl Formate], the “Vapor Press. (100° F.) [1]” value was 7.4 KPa.
With `CCCOC=O` [N-Propyl Formate], the “Vapor Press. (100° F.) [1]” value is listed as 19.9 KPa.
Regarding `CCC(C)OC=O` (stereo not shown) [Sec-Butyl Formate], the “Vapor Press. (100° F.) [1]” value is 12.1 KPa.
As for `CC(C)(C)OC=O` [Tert-Butyl Formate], the “Vapor Press. (100° F.) [1]” value was 19.8 KPa.

The conditions of a further data set: reference [1] DIPPR; cells marked [3] from DOE/EIA report.
As to `CCCCCOC=O` [Amyl Formate Ester], the “Lower Heating Value [1]” value is given as 12274 Btu/lb.
As for `CCO` [Ethanol, reference compound], the “Lower Heating Value [1]” value was 11500[3] Btu/lb.
Take `CCOC=O` [Ethyl Formate]: the “Lower Heating Value [1]” value is reported as 8751 Btu/lb.
Take `CC(C)COC=O` [Isobutyl Formate]: the “Lower Heating Value [1]” value is reported as 11377 Btu/lb.
With `COC(C)(C)C` [MTBE, methyl tertiary-butyl ether, reference compound], the “Lower Heating Value [1]” value is 15100[3] Btu/lb.
For `CO` [Methanol, reference compound], the “Lower Heating Value [1]” value is reported as 8570 Btu/lb.
Consider `COC=O` [Methyl Formate], for which the “Lower Heating Value [1]” value was 6393 Btu/lb.
With `CCCCOC=O` [N-Butyl Formate], the “Lower Heating Value [1]” value is reported as 11415 Btu/lb.
On to `CCCOC=O` [N-Propyl Formate], for which the “Lower Heating Value [1]” value is given as 9964 Btu/lb.
On to `CC(C)(C)OC=O` [Tert-Butyl Formate], for which the “Lower Heating Value [1]” value is 11277 Btu/lb.

Still in this data set, the particulars now being: reference [2] Walters, molar group contributions.
With `CCCCCOC=O` [Amyl Formate Ester], the “Lower Heating Value [2]” value is given as 13905 Btu/lb.
As to `CCCCCOC(=O)CCC(C)=O` [Amyl Levulinate], the “Lower Heating Value [2]” value is recorded as 14909 Btu/lb.
Regarding `CCO` [Ethanol, reference compound], the “Lower Heating Value [2]” value is listed as 12477 Btu/lb.
On to `CCOC=O` [Ethyl Formate], for which the “Lower Heating Value [2]” value is recorded as 10139 Btu/lb.
Consider `CCOC(=O)CCC(C)=O` [Ethyl Levulinate], for which the “Lower Heating Value [2]” value is reported as 11722 Btu/lb.
Take `CC(=O)CCC(=O)OCCC(C)C` [Isoamyl Levulinate]: the “Lower Heating Value [2]” value is 13605 Btu/lb.
With `CC(C)COC=O` [Isobutyl Formate], the “Lower Heating Value [2]” value is given as 12797 Btu/lb.
On to `CC(=O)CCC(=O)OCC(C)C` [Isobutyl Levulinate], for which the “Lower Heating Value [2]” value was 13041 Btu/lb.
With `CC(C)OC=O` [Isopropyl Formate], the “Lower Heating Value [2]” value is 12304 Btu/lb.
With `CC(=O)CCC(=O)OC(C)C` [Isopropyl Levulinate], the “Lower Heating Value [2]” value is listed as 10969 Btu/lb.
For the compound `COC(C)(C)C` [MTBE, methyl tertiary-butyl ether, reference compound], the “Lower Heating Value [2]” value was 16578 Btu/lb.
For the compound `CO` [Methanol, reference compound], the “Lower Heating Value [2]” value is on record as 8950 Btu/lb.
As to `COC=O` [Methyl Formate], the “Lower Heating Value [2]” value is 7711 Btu/lb.
For the compound `COC(=O)CCC(C)=O` [Methyl Levulinate], the “Lower Heating Value [2]” value is listed as 10773 Btu/lb.
Take `CCCCOC=O` [N-Butyl Formate]: the “Lower Heating Value [2]” value was 15175 Btu/lb.
On to `CCCCOC(=O)CCC(C)=O` [N-Butyl Levulinate], for which the “Lower Heating Value [2]” value is on record as 14451 Btu/lb.
Take `CCCOC=O` [N-Propyl Formate]: the “Lower Heating Value [2]” value is recorded as 11792 Btu/lb.
As to `CCCOC(=O)CCC(C)=O` [N-Propyl Levulinate], the “Lower Heating Value [2]” value is on record as 13912 Btu/lb.
Take `CCC(C)OC=O` (stereo not shown) [Sec-Butyl Formate]: the “Lower Heating Value [2]” value is 10617 Btu/lb.
In the case of `CCC(C)OC(=O)CCC(C)=O` (stereo not shown) [Sec-Butyl Levulinate], the “Lower Heating Value [2]” value is given as 11748 Btu/lb.
As for `CC(C)(C)OC=O` [Tert-Butyl Formate], the “Lower Heating Value [2]” value is 12873 Btu/lb.
As to `CC(=O)CCC(=O)OC(C)(C)C` [Tert-Butyl Levulinate], the “Lower Heating Value [2]” value is listed as 12010 Btu/lb.
